{"source": "patent US20190070266A1", "about": "(Novo Nordisk A/S, priority 2016, published 2019)", "system": "adult human subjects with type 2 diabetes at high risk for cardiovascular events", "assay": "Same trial: adverse events by preferred term with frequency of at least 0.1%", "format": "in vivo", "conditions": "full analysis set", "method": "A long-term, multi-centre, international, randomised double-blind, placebo-controlled trial with 9340 human subjects was carried out with treatment for at least 3.5 years and up to 5 years per subject; and this trial concerned the incidence of cardiovascular events in adult human subjects with type 2 diabetes that were at high risk for cardiovascular events, including such subjects with existing cardiovascular disease. […] All trial endpoints were collected and assessed throughout the entire duration of the trial. Subject inclusion and exclusion criteria were as described in Table 2. The subject's characteristics, cardiovascular risk profile, renal function, cardiovascular medication, and antidiabetic treatment regimens of the randomised subjects at baseline were as shown in Tables 3a-e. Overall trial duration was planned as 18 months of recruitment period followed by 42 months of treatment from last subject randomised. […] After randomisation, treatment with liraglutide or placebo was double-blind throughout the trial. […] The term “placebo” as used herein refers to a formulation identical to the liraglutide formulation except not comprising liraglutide and the placebo was administered in the volume used in the equivalent liraglutide dosage. […] The dosage could be reduced at any time in the trial if required by the subject's tolerance to the trial product. […] The subcutaneous injection was made either in the abdomen, thigh or upper arm.\nThe term “baseline” herein (e.g. used as part of “baseline characteristics” or “baseline cardiovascular risk profile”) may refer to the level of a certain parameter (e.g. level of HbA1c) by the determination made in connection with the medical visit at the time of randomisation of the subject.\nThe results of this trial may be presented herein as a number or fraction of subjects experiencing an event. Alternatively, the results of this trial may be presented with hazard ratios estimated in a Cox proportional hazard model, which is the standard statistical model used for estimating time to an event. […] A 5% significance level is the standard level for investigating significance in clinical trials.", "key": {"[1]": {"conditions": "Preferred term: Diabetic foot infection"}}}
{"smiles": "CCCCCCCCCCCCCCCC(=O)N[C@@H](CCC(=O)NCCCC[C@H](NC(=O)[C@H](C)NC(=O)[C@H](C)NC(=O)[C@H](CCC(N)=O)NC(=O)CNC(=O)[C@H](CCC(=O)O)NC(=O)[C@H](CC(C)C)NC(=O)[C@H](Cc1ccc(O)cc1)NC(=O)[C@H](CO)NC(=O)[C@H](CO)NC(=O)[C@@H](NC(=O)[C@H](CC(=O)O)NC(=O)[C@H](CO)NC(=O)[C@@H](NC(=O)[C@H](Cc1ccccc1)NC(=O)[C@@H](NC(=O)CNC(=O)[C@H](CCC(=O)O)NC(=O)[C@H](C)NC(=O)[C@@H](N)Cc1cnc[nH]1)[C@@H](C)O)[C@@H](C)O)C(C)C)C(=O)N[C@@H](CCC(=O)O)C(=O)N[C@@H](Cc1ccccc1)C(=O)N[C@H](C(=O)N[C@@H](C)C(=O)N[C@@H](Cc1c[nH]c2ccccc12)C(=O)N[C@@H](CC(C)C)C(=O)N[C@H](C(=O)N[C@@H](CCCNC(=N)N)C(=O)NCC(=O)N[C@@H](CCCNC(=N)N)C(=O)NCC(=O)O)C(C)C)[C@@H](C)CC)C(=O)O", "note": "[Liraglutide, Arg34,Lys26-(N-epsilon-(gamma-L-glutamyl(N-alfa-hexadecanoyl)))-GLP-1(7-37)]", "values": [{"measurement": "Adverse events by preferred term, % (proportion of subjects experiencing at least one event)", "setting": "[1]", "value": 0.3, "unit": "%"}, {"measurement": "Adverse events by preferred term, R (rate, events per 100 PYO)", "setting": "[1]", "value": "<0.1", "unit": "events per 100 PYO"}, {"measurement": "Adverse events by preferred term, % (proportion of subjects experiencing at least one event)", "setting": "Preferred term: Diabetic foot", "value": 2.8, "unit": "%"}, {"measurement": "Adverse events by preferred term, R (rate, events per 100 PYO)", "setting": "Preferred term: Diabetic foot", "value": 1.0, "unit": "events per 100 PYO"}, {"measurement": "Adverse events by preferred term, % (proportion of subjects experiencing at least one event)", "setting": "Preferred term: Gangrene", "value": 0.2, "unit": "%"}, {"measurement": "Adverse events by preferred term, R (rate, events per 100 PYO)", "setting": "Preferred term: Gangrene", "value": "<0.1", "unit": "events per 100 PYO"}, {"measurement": "Adverse events by preferred term, % (proportion of subjects experiencing at least one event)", "setting": "Preferred term: Skin ulcer", "value": 0.6, "unit": "%"}, {"measurement": "Adverse events by preferred term, R (rate, events per 100 PYO)", "setting": "Preferred term: Skin ulcer", "value": 0.2, "unit": "events per 100 PYO"}]}
